Results reported in patent EP4549424A1, “NEW LITHIUM EXTRACTING AGENT AND LIQUID ORGANIC MIXTURE THEREOF, AND METHOD FOR EXTRACTING LITHIUM BY MEANS OF EXTRACTION” (Beijing Salt Lake Technology Development Company Limited, priority 2022, dated 2024).
Values after ≈ are worked out from the molar mass of the structure shown. Where two headings read alike, the source gives them in different places. One block for each molecule: values may come before it.

Legend:
[1] = Liquid-liquid extraction from aqueous lithium-containing solution, ICP detection: potassium; settings: organic phase and phase ratio per example;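 also: analysis by ICP optical emission spectrometry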
[2] = Liquid-liquid extraction from aqueous lithium-containing solution, ICP detection: lithium;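 also: component concentrations in the aqueous phase were measured by inductively coupled plasma optical emission spectrometry after shaking and phase separation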
[3] = pH of aqueous phase after extraction or stripping
[4] = Liquid-liquid extraction from aqueous lithium-containing solution, ICP detection: sodium;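 also: sodium measured by inductively coupled plasma optical emission spectrometry in the diluted aqueous phase left after shaking with the organic phase and phase separation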
[5] = physchem
Description: The solution loss rate is evaluated through solubility in water.

[6] = room temperature; public literature (www.chemicalbook.com; J. Chem. Eng. Data 2008, 53, 8, 1996-1998); cited from earlier work
[7] = pH 11.48
[8] = pH 11.48; remark: listed apart in the source
[9] = feed B3 (cLi 0.937, cNa 119.10, cK 43.03 g/L, pH 9.60)
[10] = feed B3 (cLi 0.937, cNa 119.10, cK 43.03 g/L, pH 9.60), organic phase and phase ratio per example
[11] = feed B7 (cLi 0.833, cNa 55.60, cK 5.37 g/L, pH 12.05), 26°C
[12] = feed B7 (cLi 0.833, cNa 55.60, cK 5.37 g/L, pH 12.05), 26°C, organic phase and phase ratio per example
[13] = feed B4 (cLi 0.152, cNa 34.20, cK 2.36 g/L, pH 9.14)
[14] = feed B4 (cLi 0.152, cNa 34.20, cK 2.36 g/L, pH 9.14), organic phase and phase ratio per example
[15] = feed B1 (cLi 0.807, cNa 56.12 g/L, pH 11.48), organic phase and phase ratio per example

Molecule: O=C(c1ccccc1)c1ccc(O)cc1O [2,4-dihydroxydibenzophenone]
solubility in pure water [6]: 700 µg/mL (≈ 3270 µM)

Molecule: O=C(CC(=O)C(F)(F)F)c1ccccc1 [benzoyltrifluoroacetone]
solubility in pure water [6]: 240 µg/mL (≈ 1110 µM)

Molecule: 4-dodecyloxy-5-bromo-2-hydroxydibenzophenone [Example 14]
extraction rate for potassium ions [1, 13]: 25.0% | extraction rate for lithium ions [2, 14]: 48.7% | separation factor of Li/K [2, 14]: 2.8 | separation factor of Li/Na [2, 14]: 15.3 | extraction rate for sodium ions [4, 14]: 5.8%

Molecule: 2-hydroxydibenzophenone [Example 1]
cLi, remaining aqueous phase R1 [7]: 0.257 g/L | extraction rate for lithium ions ([2]; pH 11.48): 68.2% | separation factor of Li/Na ([2]; pH 11.48): 19.2 | cNa, remaining aqueous phase R1 [8]: 50.50 g/L | pH, remaining aqueous phase R1 ([3]; feed B1 (pH 11.48)): 10.12 | extraction rate for sodium ions ([4]; pH 11.48): 10%

Molecule: 2-hydroxy-2-phenylacetophenone [Example 41]
extraction rate for lithium ions [2, 15]: 69.3% | separation factor of Li/Na [2, 15]: 16.8 | pH, remaining aqueous phase R1 ([3]; feed B1 (pH 11.48)): 10.1 | extraction rate for sodium ions [4, 15]: 11.8%

Molecule: CCCCCOc1ccc(C(=O)c2ccccc2)c(O)c1 [4-pentyloxy-2-hydroxydibenzophenone]
solubility in pure water [5]: 50 µg/mL (≈ 176 µM)

Molecule: O=C(CC(=O)c1ccccc1)c1ccccc1 [Comparative Example 3, 1,3-diphenyl-1,3-propanedione, reference compound]
cK, remaining aqueous phase R1 [1, 9]: 43.21 g/L | cLi, remaining aqueous phase R1 [2, 10]: 0.377 g/L | extraction rate for lithium ions [2, 10]: 59.76% | separation factor of Li/Na [2, 10]: 45.3 | cNa, remaining aqueous phase R1 [4, 10]: 115.32 g/L | extraction rate for sodium ions [4, 10]: 3.17%

Molecule: CCCCCCCCCCOc1ccc(C(=O)c2ccccc2)c(O)c1 [Example 11, 4-decyloxy-2-hydroxydibenzophenone]
cK, remaining aqueous phase R1 [1, 9]: 42.65 g/L | extraction rate for lithium ions [2, 10]: 3.1% | separation factor of Li/Na [2, 10]: 3.5 | extraction rate for sodium ions [4, 10]: 0.9%

Molecule: CC(=O)c1ccc([N+](=O)[O-])cc1O [Example 35, 2-hydroxy-4-nitrocetophenone]
extraction rate for potassium ions [1, 11]: 3.0% | extraction rate for lithium ions [2, 12]: 91.72% | separation factor of Li/Na [2, 12]: 145 | extraction rate for sodium ions [4, 12]: 7.09%

Molecule: COc1cccc(O)c1C(C)=O [Example 31, 2-hydroxy-6-methoxyacetophenone]
extraction rate for potassium ions [1, 11]: 3.2% | extraction rate for lithium ions [2, 12]: 53.42% | separation factor of Li/Na [2, 12]: 10.5 | extraction rate for sodium ions [4, 12]: 9.86%

Molecule: CC(=O)c1cc(I)ccc1O [Example 39, 2-hydroxy-5-iodoacetophenone]
extraction rate for potassium ions [1, 11]: 8.5% | extraction rate for lithium ions [2, 12]: 48% | separation factor of Li/Na [2, 12]: 8 | extraction rate for sodium ions [4, 12]: 10.3%

Continued, in another order:

pH, remaining aqueous phase R1 ([3]; feed B3 (pH 9.60)): 8.66
Molecule: O=C(c1ccccc1)c1cc([N+](=O)[O-])c(OCc2ccccc2)cc1O [Example 12, 4-benzyloxy-5-nitro-2-hydroxydibenzophenone]
extraction rate for potassium ions [1, 9]: 8.3% | extraction rate for lithium ions [2, 10]: 85.7% | separation factor of Li/K [2, 10]: 66.0 | separation factor of Li/Na [2, 10]: 53.4 | extraction rate for sodium ions [4, 10]: 10.1%

solubility in pure water [5]: 10 µg/mL (≈ 26.9 µM)
Molecule: CCCCCCCCOc1cc(O)c(C(=O)c2ccccc2)cc1[N+](=O)[O-] [2-hydroxy-4-octyloxy-5-nitrodibenzophenone]

solubility in pure water [5]: 10 µg/mL (≈ 26.9 µM)
Molecule: CCCCCCCCOc1ccc(C(=O)c2ccccc2)c(O)c1[N+](=O)[O-] [4-octyloxy-3-nitro-2-hydroxydibenzophenone]

pH, remaining aqueous phase R1 ([3]; feed B7 (pH 12.05)): 10.30
Molecule: 2-hydroxy-5-methoxyacetophenone [Example 30]
extraction rate for potassium ions [1, 11]: 7.08% | extraction rate for lithium ions [2, 12]: 60.26% | separation factor of Li/Na [2, 12]: 12.4 | extraction rate for sodium ions [4, 12]: 10.86%

solubility ([5]; water): < 1000 µg/mL
Molecule: COc1ccc(C(=O)c2ccccc2)c(O)c1 [2-hydroxy-4-methoxydibenzophenone]

cK, remaining aqueous phase R1 [1, 13]: 1.80 g/L
Molecule: CCCCCCCCCCCCOc1cc(O)c(C(=O)c2ccccc2)cc1Br [Example 15, 4-dodecyloxy-5-bromo-2-hydroxydibenzophenone]
extraction rate for potassium ions [1, 13]: 23.7% | extraction rate for lithium ions [2, 14]: 64.5% | separation factor of Li/K [2, 14]: 5.8 | separation factor of Li/Na [2, 14]: 24.4 | extraction rate for sodium ions [4, 14]: 6.9%

cK, remaining aqueous phase R1 [1, 11]: 4.93 g/L
Molecule: CC(=O)c1cc(Cl)cc([N+](=O)[O-])c1O [Example 37, 5-chloro-2-hydroxy-3-nitrocetophenone]
extraction rate for potassium ions [1, 11]: 9.2% | extraction rate for lithium ions [2, 12]: 92.1% | separation factor of Li/Na [2, 12]: 120 | extraction rate for sodium ions [4, 12]: 8.7%
